Reference: PMC10641818, “Development of First-in-Class Dual Sirt2/HDAC6 Inhibitors as Molecular Tools for Dual Inhibition of Tubulin Deacetylation” (Journal of Medicinal Chemistry, 2023)

Key:
[1] = biological target: T1, Sirt2 (Homo sapiens, UniProt Q8IXJ6); assay: Sirt2 in vitro deacetylation assay (ZMAL, trypsin-based fluorescence); assay type: biochemical; details: deacetylation, mean ± SD
T1 construct: the respective sirtuin (Sirt1_134–747, Sirt2_56–356, or Sirt3_118–395) was mixed with; made in house; host or cells: Escherichia coli BL21 Star (DE3)
T1 sequence (Q8IXJ6 56-356): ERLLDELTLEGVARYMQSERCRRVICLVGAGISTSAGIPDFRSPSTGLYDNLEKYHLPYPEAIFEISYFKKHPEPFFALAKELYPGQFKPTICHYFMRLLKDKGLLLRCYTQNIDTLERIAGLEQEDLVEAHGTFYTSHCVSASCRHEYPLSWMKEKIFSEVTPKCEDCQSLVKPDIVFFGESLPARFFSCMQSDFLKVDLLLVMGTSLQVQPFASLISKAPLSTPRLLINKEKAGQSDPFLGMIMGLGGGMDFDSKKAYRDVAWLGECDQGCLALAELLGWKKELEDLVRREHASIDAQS

[2] = biological target: T2, Sirt1 (Homo sapiens, UniProt Q96EB6); assay: Sirt1 in vitro deacetylation assay (ZMAL); assay type: biochemical
T2 construct: the respective sirtuin (Sirt1_134–747, Sirt2_56–356, or Sirt3_118–395) was mixed with; made in house; host or cells: Escherichia coli BL21 Star (DE3)
T2 sequence (Q96EB6 134-747): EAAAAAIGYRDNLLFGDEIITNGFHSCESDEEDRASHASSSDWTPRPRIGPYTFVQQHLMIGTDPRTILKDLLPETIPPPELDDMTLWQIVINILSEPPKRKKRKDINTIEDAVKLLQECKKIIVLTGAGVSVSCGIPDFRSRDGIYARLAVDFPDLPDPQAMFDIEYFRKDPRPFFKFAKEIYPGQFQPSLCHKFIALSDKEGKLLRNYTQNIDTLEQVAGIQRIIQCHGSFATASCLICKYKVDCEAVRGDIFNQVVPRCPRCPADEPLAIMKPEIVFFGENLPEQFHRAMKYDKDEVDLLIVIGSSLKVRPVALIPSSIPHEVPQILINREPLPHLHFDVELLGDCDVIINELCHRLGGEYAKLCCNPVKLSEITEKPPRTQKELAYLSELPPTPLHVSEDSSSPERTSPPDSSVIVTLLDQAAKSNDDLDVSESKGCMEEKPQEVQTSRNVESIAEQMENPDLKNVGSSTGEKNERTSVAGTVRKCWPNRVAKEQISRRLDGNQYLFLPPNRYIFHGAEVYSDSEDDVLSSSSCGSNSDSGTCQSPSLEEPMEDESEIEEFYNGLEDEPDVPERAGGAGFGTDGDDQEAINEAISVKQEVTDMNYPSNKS

[3] = biological target: T3, Sirt2 (demyristoylation) (Homo sapiens, UniProt Q8IXJ6); assay: Discontinuous Sirt2 demyristoylation assay (ZMML substrate); assay type: biochemical; details: mean ± SD
T3 construct: the respective sirtuin (Sirt1_134–747, Sirt2_56–356, or Sirt3_118–395) was mixed with; made in house; host or cells: Escherichia coli BL21 Star (DE3)
T3 sequence (Q8IXJ6 56-356): T1 sequence (Q8IXJ6 56-356)

[4] = test system: HGC27 gastric carcinoma cells; assay: Cell viability assay (MTS) HGC27; assay type: cell-based; details: Homo sapiens, HGC-27, 72 h
In short: (§1)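 HGC27 and PC-3M-luc cells (2000/well) were read by MTS after compound in 0.5% DMSO. W1 (10^4/well) and MCF-7 (2 × 10^3/well) were given half-log dilutions for 72 h, then MTT for 1 h, with absorbance at 570 nm minus 690 nm. Viability was fitted to a four-parameter logistic curve.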

[5] = test system: W1 ovarian cancer cells; assay: Cell viability assay (MTT) W1; assay type: cell-based; details: 72 h
In short: as §1

[6] = test system: PC-3M-luc prostate cancer cells; assay: Cell viability assay (MTS) PC-3M-luc; assay type: cell-based; details: 72 h
In short: as §1

| IC50 [1] [µM] | inhibition at 20 µM [2] [%] | IC50 [3] [µM] | EC50 ([4]; MTS, mean ± SD) [µM] | EC50 ([5]; MTT, mean ± SD) [µM] | EC50 ([6]; PC-3M-luc, read-out: PC-3M-luc cell viability EC50, MTS, mean ± SD) [µM] | Structure (SMILES) | inhibition at 50 µM ([4]; @ 50 μM, read-out: HGC27 percentual inhibition) [%] | inhibition at 100 µM ([5]; @ 0.1 mM, read-out: W1 percentual inhibition) [%] | PC-3M-luc cellular effect ([6]; @ 50 μM) |
| --- | --- | --- | --- | --- | --- | --- | --- | --- | --- |
| 0.22 ± 0.01 | < 15 | 1.4 ± 0.3 |  |  |  | Cc1cc(C)nc(SCC(=O)Nc2ncc(Cc3cccc(OCc4cn(Cc5ccccc5)nn4)c3)s2)n1 [Compound 4, SirReal1.1, reference compound] | 39 | 3 | ni ^b (ni = no inhibition (cellular effect <20% @ 50 μM)) |
| 0.32 ± 0.11 | < 15 | 9.7 ± 1.3 | 12.9 ± 0.9 | 19.2 ± 1.3 | 30.1 ± 3.8 | CCCCN(Cc1ccc(C(=O)NO)cc1)C(=O)CCCCn1cc(COc2cccc(Cc3cnc(NC(=O)CSc4nc(C)cc(C)n4)s3)c2)nn1 [Compound 33, 4-((N-Butyl-5-(4-((3-((2-(2-((4,6-dimethylpyrimidin-2-yl)thio)acetamido)thiazol-5-yl)methyl)phenoxy)methyl)-1H-1,2,3-triazol-1-yl)pentanamido)methyl)-N-hydroxybenzamide] |  |  |  |
